Experimental data from ChEMBL document CHEMBL1201862, “PubChem BioAssay data set” (2004).
Active and inactive are the calls of the source.

Experiments:
Format in all cases: functional
[1] = biological target: T1, Corticotropin-releasing factor receptor 2/Corticotropin-releasing factor-binding protein (Homo sapiens, UniProt P24387+Q13324); assay: Dose Response confirmation of uHTS hits for small molecule antagonists of the CRF-binding protein and CRF-R2 receptor complex.; conditions: read-out: IC50_Mean
T1 sequence (Q13324 whole entry): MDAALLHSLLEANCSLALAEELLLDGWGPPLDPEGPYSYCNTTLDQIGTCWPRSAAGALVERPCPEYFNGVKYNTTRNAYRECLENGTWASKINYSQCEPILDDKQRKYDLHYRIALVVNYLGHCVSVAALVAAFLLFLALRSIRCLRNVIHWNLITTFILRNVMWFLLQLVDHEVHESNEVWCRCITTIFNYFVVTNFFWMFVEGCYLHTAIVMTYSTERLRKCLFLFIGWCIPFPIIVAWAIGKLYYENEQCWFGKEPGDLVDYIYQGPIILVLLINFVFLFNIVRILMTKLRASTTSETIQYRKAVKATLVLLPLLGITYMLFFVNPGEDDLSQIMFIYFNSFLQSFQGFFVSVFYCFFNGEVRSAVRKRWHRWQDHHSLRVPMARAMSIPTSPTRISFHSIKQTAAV
T1 sequence (P24387 whole entry): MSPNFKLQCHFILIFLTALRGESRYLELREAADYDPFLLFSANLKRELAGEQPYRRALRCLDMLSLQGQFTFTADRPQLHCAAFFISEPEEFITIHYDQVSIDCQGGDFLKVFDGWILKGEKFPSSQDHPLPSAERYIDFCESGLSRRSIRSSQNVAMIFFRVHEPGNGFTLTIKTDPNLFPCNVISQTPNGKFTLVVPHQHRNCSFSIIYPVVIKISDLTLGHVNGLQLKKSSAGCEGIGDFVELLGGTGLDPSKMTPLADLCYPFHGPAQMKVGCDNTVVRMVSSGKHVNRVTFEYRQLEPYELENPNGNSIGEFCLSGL

[2] = biological target: Apoptotic protease-activating factor 1 (Homo sapiens, UniProt O14727)
Sequence of Apoptotic protease-activating factor 1 (O14727 whole entry): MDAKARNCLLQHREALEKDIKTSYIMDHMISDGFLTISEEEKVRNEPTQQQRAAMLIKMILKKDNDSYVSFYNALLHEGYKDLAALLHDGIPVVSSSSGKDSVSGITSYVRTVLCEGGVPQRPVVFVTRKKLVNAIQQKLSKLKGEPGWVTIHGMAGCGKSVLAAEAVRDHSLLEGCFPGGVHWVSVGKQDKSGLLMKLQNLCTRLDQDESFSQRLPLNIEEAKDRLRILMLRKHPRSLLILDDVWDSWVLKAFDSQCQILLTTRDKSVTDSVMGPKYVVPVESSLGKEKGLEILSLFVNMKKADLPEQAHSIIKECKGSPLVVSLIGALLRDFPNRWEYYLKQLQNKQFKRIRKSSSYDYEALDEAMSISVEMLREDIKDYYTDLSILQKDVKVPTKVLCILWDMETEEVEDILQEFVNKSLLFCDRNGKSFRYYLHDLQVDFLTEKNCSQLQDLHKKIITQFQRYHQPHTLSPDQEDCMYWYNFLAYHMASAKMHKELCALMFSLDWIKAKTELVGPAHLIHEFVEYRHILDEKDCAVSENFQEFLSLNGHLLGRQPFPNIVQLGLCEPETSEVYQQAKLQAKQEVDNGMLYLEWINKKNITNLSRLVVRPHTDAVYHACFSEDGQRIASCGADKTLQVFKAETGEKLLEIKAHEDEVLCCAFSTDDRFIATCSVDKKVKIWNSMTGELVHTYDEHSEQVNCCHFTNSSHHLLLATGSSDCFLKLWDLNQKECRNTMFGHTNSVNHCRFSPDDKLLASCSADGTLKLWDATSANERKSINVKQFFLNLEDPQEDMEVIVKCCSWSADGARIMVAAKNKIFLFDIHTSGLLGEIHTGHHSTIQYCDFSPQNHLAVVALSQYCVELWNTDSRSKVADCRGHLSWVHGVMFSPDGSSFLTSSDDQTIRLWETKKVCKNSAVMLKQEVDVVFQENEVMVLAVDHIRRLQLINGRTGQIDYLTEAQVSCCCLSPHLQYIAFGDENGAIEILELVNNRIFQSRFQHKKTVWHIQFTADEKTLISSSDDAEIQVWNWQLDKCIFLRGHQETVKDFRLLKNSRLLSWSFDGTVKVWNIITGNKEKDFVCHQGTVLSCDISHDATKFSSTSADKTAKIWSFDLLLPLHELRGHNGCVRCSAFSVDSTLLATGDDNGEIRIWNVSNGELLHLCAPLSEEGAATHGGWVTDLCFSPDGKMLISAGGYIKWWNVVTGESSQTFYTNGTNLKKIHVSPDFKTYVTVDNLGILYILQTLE

[3] = biological target: T1, Corticotropin-releasing factor receptor 2/Corticotropin-releasing factor-binding protein; assay: activators of CRF receptor 2 with binding protein – uHTS hits, confirmation (AID 602473); conditions: read-out: EC50_Mean
[4] = biological target: Ras and Rab interactor 1/Tyrosine-protein kinase ABL1 (Homo sapiens, UniProt P00519+Q13671);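 further: biochemical TR-FRET dose-response test measuring inhibition of binding between Rin1 and Abl proteins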
Sequence of Ras and Rab interactor 1/Tyrosine-protein kinase ABL1 (P00519 whole entry): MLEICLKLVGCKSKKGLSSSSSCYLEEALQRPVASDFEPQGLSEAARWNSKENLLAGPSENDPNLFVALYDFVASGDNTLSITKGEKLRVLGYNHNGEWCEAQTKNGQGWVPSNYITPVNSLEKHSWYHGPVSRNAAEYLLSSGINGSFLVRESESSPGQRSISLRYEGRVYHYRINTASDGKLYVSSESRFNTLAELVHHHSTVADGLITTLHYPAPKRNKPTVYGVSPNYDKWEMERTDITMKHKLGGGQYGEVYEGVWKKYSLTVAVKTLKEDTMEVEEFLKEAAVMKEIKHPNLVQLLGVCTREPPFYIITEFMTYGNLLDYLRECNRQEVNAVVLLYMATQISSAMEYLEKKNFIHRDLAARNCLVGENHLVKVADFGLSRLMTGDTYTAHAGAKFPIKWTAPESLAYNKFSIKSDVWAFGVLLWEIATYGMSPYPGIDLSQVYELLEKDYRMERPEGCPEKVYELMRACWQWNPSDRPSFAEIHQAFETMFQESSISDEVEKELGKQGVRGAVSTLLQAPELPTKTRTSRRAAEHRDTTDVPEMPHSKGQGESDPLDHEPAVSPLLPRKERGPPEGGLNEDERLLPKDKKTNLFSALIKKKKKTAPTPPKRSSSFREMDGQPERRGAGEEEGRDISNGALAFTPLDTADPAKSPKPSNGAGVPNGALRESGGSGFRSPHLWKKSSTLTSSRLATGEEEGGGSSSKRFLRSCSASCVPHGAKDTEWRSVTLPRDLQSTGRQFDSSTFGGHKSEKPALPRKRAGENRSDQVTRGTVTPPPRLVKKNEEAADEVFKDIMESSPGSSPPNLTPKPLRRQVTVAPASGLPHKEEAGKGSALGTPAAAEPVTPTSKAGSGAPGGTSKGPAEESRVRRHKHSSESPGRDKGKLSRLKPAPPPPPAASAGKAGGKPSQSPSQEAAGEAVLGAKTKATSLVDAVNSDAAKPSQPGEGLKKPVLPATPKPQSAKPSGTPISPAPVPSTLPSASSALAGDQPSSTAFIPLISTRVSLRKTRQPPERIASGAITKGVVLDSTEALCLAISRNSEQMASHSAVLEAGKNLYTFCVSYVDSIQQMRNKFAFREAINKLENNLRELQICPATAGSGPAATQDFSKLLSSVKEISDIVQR
Sequence of Ras and Rab interactor 1/Tyrosine-protein kinase ABL1 (Q13671 whole entry): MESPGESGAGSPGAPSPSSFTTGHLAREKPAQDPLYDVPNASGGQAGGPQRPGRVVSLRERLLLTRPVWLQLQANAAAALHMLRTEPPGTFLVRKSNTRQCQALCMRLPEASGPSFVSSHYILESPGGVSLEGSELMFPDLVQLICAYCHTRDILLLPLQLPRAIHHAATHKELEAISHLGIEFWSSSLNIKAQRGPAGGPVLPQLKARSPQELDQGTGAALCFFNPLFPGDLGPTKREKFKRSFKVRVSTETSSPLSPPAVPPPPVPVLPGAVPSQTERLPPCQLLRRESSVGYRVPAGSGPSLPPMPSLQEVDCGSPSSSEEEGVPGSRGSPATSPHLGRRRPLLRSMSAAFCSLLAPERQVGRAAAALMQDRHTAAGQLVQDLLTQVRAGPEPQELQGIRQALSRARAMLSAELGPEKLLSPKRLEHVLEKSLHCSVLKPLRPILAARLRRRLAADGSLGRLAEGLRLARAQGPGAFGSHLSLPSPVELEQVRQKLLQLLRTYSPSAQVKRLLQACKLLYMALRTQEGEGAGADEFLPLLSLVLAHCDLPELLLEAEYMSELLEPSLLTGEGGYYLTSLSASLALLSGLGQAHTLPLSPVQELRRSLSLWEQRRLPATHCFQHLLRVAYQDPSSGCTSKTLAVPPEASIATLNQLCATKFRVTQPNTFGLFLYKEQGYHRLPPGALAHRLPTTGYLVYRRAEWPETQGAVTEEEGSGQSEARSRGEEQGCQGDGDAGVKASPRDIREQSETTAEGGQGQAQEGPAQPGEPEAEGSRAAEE

Leucine aminopeptidase = biological target: T2, Leucine aminopeptidase (Plasmodium falciparum 3D7, UniProt Q8IL11); assay: P. falciparum M17LAP inhibitors, primary screen, biochemical, fluorogenic H-Leu-NHMec substrate, 1536-well (AID 1619)
T2 sequence (Q8IL11 whole entry): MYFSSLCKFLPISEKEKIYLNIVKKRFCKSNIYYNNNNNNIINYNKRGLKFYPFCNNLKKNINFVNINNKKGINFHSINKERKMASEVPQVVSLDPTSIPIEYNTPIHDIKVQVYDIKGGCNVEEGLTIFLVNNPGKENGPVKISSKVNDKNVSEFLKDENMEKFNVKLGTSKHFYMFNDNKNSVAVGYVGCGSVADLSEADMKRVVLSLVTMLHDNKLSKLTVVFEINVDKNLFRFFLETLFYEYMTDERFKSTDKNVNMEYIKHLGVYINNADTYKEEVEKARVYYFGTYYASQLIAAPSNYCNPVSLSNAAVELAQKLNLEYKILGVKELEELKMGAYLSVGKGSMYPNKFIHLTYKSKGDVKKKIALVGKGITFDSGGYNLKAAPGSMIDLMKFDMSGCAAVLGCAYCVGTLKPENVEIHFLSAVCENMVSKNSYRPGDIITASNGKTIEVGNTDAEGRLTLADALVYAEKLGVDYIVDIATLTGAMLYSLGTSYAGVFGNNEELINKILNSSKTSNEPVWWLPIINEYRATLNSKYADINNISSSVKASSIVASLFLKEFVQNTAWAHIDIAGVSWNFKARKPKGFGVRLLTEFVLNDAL

Structure (SMILES)	IC50 [1]	IC50 [2]	EC50 [3]	IC50 [4]	IC50 (Leucine aminopeptidase)
CCCCCn1c(=O)c(C(=O)Nc2c(C)n(C)n(-c3ccccc3)c2=O)c(O)c2ccccc21	> 47.1 µM (inactive)	> 100 µM (inactive)	> 53 µM (inactive)		
Cc1ccc(-n2c(SCC(=O)N3Cc4ccccc4CC3C(=O)O)nnc2-c2cccnc2)c(C)c1 (stereo not given)				24.9 µM (inactive)	3.12 µM (active)
